Counter-ions that a name gives are not always drawn.
Tests used:
CIRAR = assay: Example V: postemergence herbicidal activity of mixtures in forage crops, CIRAR; type: in vivo, Cirsium arvense (Canada thistle); conditions: alone, foliar, approximately 21 days
Protocol: (§1) Seeds or root cuttings of the desired test plant species were planted in Sun Gro MetroMix® 306 planting mixture, which typically has a pH of 6.0 to 6.8 and an organic matter content of about 30 percent, in plastic pots with a surface area of 126.6 square centimeters (cm^2). […] The plants were grown for 14-60 days in a greenhouse with an approximate 14 hour photoperiod which was maintained at approximately 28° C. during the day and 24° C. during the night.
(§2) Spray solutions of the second herbicide or experimental compound mixtures were prepared by adding the stock solutions to the appropriate amount of dilution solution to form 12 mL spray solution with active ingredients in two-way combinations.

SINAR = assay: Example V: postemergence herbicidal activity of mixtures in forage crops, SINAR; type: in vivo, Sinapis arvensis (wild mustard); conditions: alone, foliar, approximately 21 days
Protocol: as §1, §2

SOOSS = assay: Example V: postemergence herbicidal activity of mixtures in forage crops, SOOSS; type: in vivo, Solidago L. spec. (goldenrod); conditions: alone, foliar, approximately 21 days
Protocol: as §1, §2

TRFRE = assay: Example V: postemergence herbicidal activity of mixtures in forage crops, TRFRE; type: in vivo, Trifolium repens (white clover); conditions: alone, foliar, approximately 21 days
Protocol: as §1, §2

AMARE = assay: Example IV: postemergence foliar-applied herbicidal mixtures, weed control in cereal crops in the greenhouse, AMARE; type: in vivo, Amaranthus retroflexus (redroot pigweed); conditions: alone, 20-22 days
Protocol: (§3) Seeds of the desired test plant species were planted in Sun Gro MetroMix 306 planting mixture, which typically has a pH of 6.0 to 6.8 and an organic matter content of about 30 percent, in plastic pots with a surface area of 103.2 square centimeters (cm^2). […] The plants were grown for 7-36 days in a greenhouse with an approximate 14 hour photoperiod which was maintained at about 18° C. during the day and 17° C. during the night.
(§4) Spray solutions of the second cereal herbicide and experimental compound mixtures were prepared by adding the stock solutions to the appropriate amount of dilution solution to form 12 mL spray solution with active ingredients in two- and three-way combinations.

BRSNN = assay: Example IV: postemergence foliar-applied herbicidal mixtures, cereal crops, BRSNN; type: in vivo, Brassica napus (volunteer canola); conditions: alone, 35 gai/ha, foliar, 20-22 days
Protocol: as §3, §4

POLCO = assay: Example IV: postemergence foliar-applied herbicidal mixtures, cereal crops, POLCO; type: in vivo, Polygonum convolvulus (wild buckwheat); conditions: alone, 35 gai/ha, foliar, 20-22 days
Protocol: as §3, §4

CENMA = assay: Example V: postemergence herbicidal activity of mixtures in forage crops, CENMA; type: in vivo, Centaurea maculosa (spotted knapweed); conditions: alone, foliar, approximately 21 days
Protocol: as §1, §2

SONAR = assay: Example V: postemergence herbicidal activity of mixtures in forage crops, SONAR; type: in vivo, Sonchus arvensis (field sowthistle); conditions: alone, foliar, approximately 21 days
Protocol: as §1, §2

CYPRO = assay: Example II: in-water applied herbicidal mixtures, weed control in transplanted paddy rice (greenhouse), CYPRO; type: in vivo, Cyperus rotundus (purple nutsedge); conditions: 22 DAA
Protocol: (§5) The prepared mud was dispensed in 365 mL aliquots into 16-ounce (oz.) non-perforated plastic pots with a surface area of 86.59 square centimeters (cm^2) leaving a headspace of 3 centimeters (cm) in each pot Mud was allowed to dry overnight prior to planting or transplanting. Rice seeds were planted in Sun Gro MetroMix® 306 planting mixture, which typically has a pH of 6.0 to 6.8 and an organic matter content of about 30 percent, in plastic plug trays. Seedlings at the second or third leaf stage of growth were transplanted into 840 mL of mud contained in 32-oz. non-perforated plastic pots with a surface area of 86.59 cm^2 4 days prior to herbicide application. […] Nutrients were added as Osmocote® (19:6:12, N:P:K^+ minor nutrients) at 2 g per 16-oz. pot and 4 g per 32-oz. pot.
(§6) Applications were made by injecting with a pipetter appropriate amounts of the application solutions, individually and sequentially, into the aqueous layer of the paddy. Control plants were treated in the same manner with the solvent blank. Applications were made so that all treated plant material received the same concentrations of acetone and crop oil concentrate.

ECHCG [1] = assay: Example II: in-water applied herbicidal mixtures, transplanted paddy rice, ECHCG; type: in vivo, Echinochloa crus-galli (barnyardgrass); conditions: 22 DAA
Protocol: as §5, §6

ECHOR = assay: Example II: in-water applied herbicidal mixtures, transplanted paddy rice, ECHOR; type: in vivo, Echinochloa oryzoides (early watergrass); conditions: Echinochloa oryzoides, 528 h, 22 DAA, read-out: Visual Weed Control (%) Obs
Protocol: as §5, §6

SCPMA = assay: Example II: in-water applied herbicidal mixtures, transplanted paddy rice, SCPMA; type: in vivo; conditions: 22 DAA
Protocol: as §5, §6

CASOB = assay: Example V: postemergence herbicidal activity of mixtures in forage crops (greenhouse), CASOB; type: in vivo, Cassia obtusifolia (sicklepod); conditions: alone, 50 gae/ha, foliar, approximately 21 days
Protocol: as §1, §2

DIGSA = assay: Example I: postemergence foliar-applied herbicidal mixtures, direct seeded rice, DIGSA
ECHCG [2] = assay: Example I: postemergence foliar-applied herbicidal mixtures, direct seeded rice, ECHCG
ECHCO = assay: Example I: postemergence foliar-applied herbicidal mixtures, direct seeded rice, ECHCO
Protocol: The soil matrix was contained in plastic pots with a volume of 1 quart and a surface area of 83.6 square centimeters (cm^2). […] The plants were grown for 8-22 days in a greenhouse with an approximate 14 h photoperiod which was maintained at about 29° C. during the day and 26° C. during the night. Nutrients (Peters Excel® 15-5-15 5-Ca 2-Mg and iron chelate) were applied in the irrigation solution as needed and water was added on a regular basis. Supplemental lighting was provided with overhead metal halide 1000-Watt lamps as necessary. The plants were employed for testing when they reached the first through fourth true leaf stage.
Treatments consisted of the acid or esters of 4-amino-3-chloro-5-fluoro-6-(4-chloro-2-fluoro-3-methoxy-phenyl)pyridine-2-carboxylic acid (Compound A), each formulated as an SC (suspension concentrate), and various herbicidal components alone and in combination. Forms of compound A were applied on an acid equivalent basis.
For treatments comprised of formulated compounds, measured amounts of compounds were placed individually in 25 mL glass vials and diluted in a volume of 1.25% (v/v) Agri-Dex® crop oil concentrated to obtain 12× stock solutions. […] Application solutions were prepared by adding an appropriate amount of each stock solution (e.g., 1 mL) and diluted to the appropriate final concentrations with the addition of 10 mL of an aqueous mixture of 1.25% (v/v) crop oil concentrate so that the final spray solutions contained 1.25+/−0.05% (v/v) crop oil concentrate.
All stock solutions and applications solutions were visually inspected for compound compatibility prior to application. Spray solutions were applied to the plant material with an overhead Mandel track sprayer equipped with a 8002E nozzles calibrated to deliver 187 L/ha over an application area of 0.503 m^2 at a spray height of 18 to 20 inches (46 to 50 cm) above average plant canopy height. Control plants were sprayed in the same manner with the solvent blank.
The treated plants and control plants were placed in a greenhouse as described above and watered by sub-irrigation to prevent wash-off of the test compounds. After approximately 3 weeks, the condition of the test plants as compared with that of the untreated plants was determined visually and scored on a scale of 0 to 100 percent where 0 corresponds to no injury or growth inhibition and 100 corresponds to complete kill.
Colby's equation was used to determine the herbicidal effects expected from the mixtures (Colby, S. R. 1967. Calculation of the synergistic and antagonistic response of herbicide combinations. Weeds 15:20-22).
The following equation was used to calculate the expected activity of mixtures containing two active ingredients, A and B: Expected=A+B−(A×B/100)
A=observed efficacy of active ingredient A at the same concentration as used in the mixture.
B=observed efficacy of active ingredient B at the same concentration as used in the mixture.

Structure (SMILES): Nc1cc(Cl)nc(C(=O)O)c1Cl [Aminopyralid TIPA salt, 4-amino-3,6-dichloropyridine-2-carboxylic acid compound with 1,1′,1″-nitrilotris[2-propanol], reference compound]
- CIRAR Obs (observed value) (CIRAR; 17.5 gae/ha): 45%
- SINAR Obs (observed value) (SINAR; 17.5 gae/ha): 25%
- SINAR Obs (observed value) (SINAR; 35 gae/ha): 45%
- SOOSS Obs (observed value) (SOOSS; 17.5 gae/ha): 45%
- TRFRE Obs (observed value) (TRFRE; 17.5 gae/ha): 35%

Structure (SMILES): O=C(O)c1nc(Cl)ccc1Cl [Clopyralid MEA salt, 3,6-dichloro-2-pyridinecarboxylic acid with 2-aminoethanol, reference compound]
- CIRAR Obs (observed value) (CIRAR; 35 gae/ha): 75%
- SOOSS Obs (observed value) (SOOSS; 35 gae/ha): 25%

Structure (SMILES): O=C(O)c1nc(Cl)ccc1Cl [Clopyralid, 3,6-dichloro-2-pyridinecarboxylic acid]
- AMARE Ob (observed value) (AMARE; 50 gai/ha): 17%

Structure (SMILES): COc1c(Cl)ccc(Cl)c1C(=O)O [Dicamba, 3,6-dichloro-2-methoxybenzoic acid]
- AMARE Ob (observed value) (AMARE; 35 gai/ha): 53%
- BRSNN Ob (observed value) (BRSNN): 8%
- POLCO Ob (observed value) (POLCO): 13%

Structure (SMILES): CCCCCCC(C)OC(=O)COc1nc(F)c(Cl)c(N)c1Cl (centres unmarked) [Fluroxypyr ME]
- CENMA Obs (observed value) (CENMA; 35 gae/ha): 0%
- CENMA Obs (observed value) (CENMA; 70 gae/ha): 0%
- CIRAR Obs (observed value) (CIRAR; 70 gae/ha): 10%
- SONAR Obs (observed value) (SONAR; 35 gae/ha): 0%
- SONAR Obs (observed value) (SONAR; 70 gae/ha): 15%
- SOOSS Obs (observed value) (SOOSS; 70 gae/ha): 50%
- TRFRE Obs (observed value) (TRFRE; 35 gae/ha): 15%
- TRFRE Obs (observed value) (TRFRE; 70 gae/ha): 20%

Structure (SMILES): CCCCOCCOC(=O)COc1nc(Cl)c(Cl)cc1Cl [Triclopyr Butotyl Ester, 2-butoxyethyl 2-[(3,5,6-trichloro-2-pyridinyl)oxy]acetate, reference compound]
- Visual Weed Control (%) Obs (CYPRO; 70 gae/ha): 0%
- Visual Weed Control (%) Obs (CYPRO; 140 gae/ha): 40%
- Visual Weed Control (%) Obs (ECHCG [1]; 70 gae/ha): 0%
- Visual Weed Control (%) Obs (ECHCG [1]; 140 gae/ha): 0%
- pest or weed control at 70 g/ha (ECHOR; 70 gae/ha): 0%
- pest or weed control at 140 g/ha (ECHOR; 140 gae/ha): 0%
- Visual Weed Control (%) Obs (SCPMA; 70 gae/ha): 50%
- Visual Weed Control (%) Obs (SCPMA; 140 gae/ha): 60%
- CASOB Obs (observed value) (CASOB): 18%
- CENMA Obs (observed value) (CENMA; 35 gae/ha): 30%
- CENMA Obs (observed value) (CENMA; 70 gae/ha): 45%
- CIRAR Obs (observed value) (CIRAR; 70 gae/ha): 40%
- SONAR Obs (observed value) (SONAR; 35 gae/ha): 60%
- SONAR Obs (observed value) (SONAR; 70 gae/ha): 60%
- Visual Weed Control (%) - 23 DAA DIGSA Obs (DIGSA; 35 gae/ha): 0%
- Visual Weed Control (%) - 23 DAA DIGSA Obs (DIGSA; 70 gae/ha): 0%
- Visual Weed Control (%) - 23 DAA DIGSA Obs (DIGSA; 140 gae/ha): 0%
- Visual Weed Control (%) - 23 DAA ECHCG Obs (ECHCG [2]; 35 gae/ha): 0%
- Visual Weed Control (%) - 23 DAA ECHCG Obs (ECHCG [2]; 70 gae/ha): 0%
- Visual Weed Control (%) - 23 DAA ECHCG Obs (ECHCG [2]; 140 gae/ha): 15%
- Visual Weed Control (%) - 23 DAA ECHCO Obs (ECHCO; 70 gae/ha): 0%
- Visual Weed Control (%) - 23 DAA ECHCO Obs (ECHCO; 140 gae/ha): 0%

From patent US8912120B2, “Herbicidal compositions comprising 4-amino-3-chloro-5-fluoro-6-(4-chloro-2-fluoro-3-methoxyphenyl) pyridine-2-carboxylic acid or a derivative thereof and synthetic auxin herbicides” (Dow AgroSciences, LLC., priority 2012, dated 2014)
